According to US20240390464A1, “Treatment of Adults With Overweight or Obesity With or Without Weight-Related Comorbidities” (Carmot Therapeutics Inc., priority 2023, published 2024):
Numbered stars: 1 amine (or outer) side, 2 acyl side, 3 side chain; on linkers, the order of the positions; unused ones are H or OH. Square brackets hold non-standard residues; d marks the D form. Side chains are listed from the residue outwards. Peptide text beside a SMILES is read from it. * marks the point of attachment. Isobutyryl(2-(3-CN-5-F-Ph)) = CC(C)(C(=O)*)c1cc(F)cc(C#N)c1; C20 diacid = O=C(O)CCCCCCCCCCCCCCCCCCC(=O)*; γGlu = O=C(O)[C@H](CCC(=O)[*:2])N[*:1]; AEEA = NCCOCCOCC(=O)O; Aib = CC(C)(N)C(=O)O; βAla = NCCC(=O)O

Assay: Phase 1 SAD Cohorts 1-5: safety and tolerability (adverse events)
Format: in vivo, human
Conditions: for AE: Abdominal bloating / AE: Abdominal cramp / AE: Abdominal cramp with loose bowel / AE: Abdominal pain / AE: Abnormal LFTs / AE: Constipation / AE: Diarrhea / AE: Dyspepsia / AE: Dysphasia / AE: Early satiety / AE: Emesis / AE: Exacerbated GERD / AE: Fatigue / AE: Headache / AE: Indigestion / AE: Lethargy / AE: Loose bowel motion / AE: Loose stools / AE: Loss of Appetite / AE: Microscopic hematuria / AE: Nausea / AE: Reduced appetite / AE: Reduced bowel motion / AE: Reflux / AE: Throat discomfort / AE: Vomiting / Life-threatening TEAE / Moderate TEAEs / Related TEAEs / Serious TEAEs / Severe TEAEs / TEAE leading to death / TEAEs: N = 8, blinded
Text: This Example outlines the protocol for a Phase 1 randomized, double-blind, placebo-controlled study to evaluate the safety, tolerability, pharmacokinetics, and pharmacodynamics of CT-388 in otherwise healthy overweight and obese adult participants and in obese patients with type 2 diabetes mellitus.
The primary objective of this study is to determine the safety and tolerability of CT-388 in otherwise healthy overweight and obese adult participants when administered as a single dose of 0.5, 2.0, 5.0, 6.0, or 7.5 mg.
Safety and tolerability will be assessed by monitoring adverse events (AE) including local injection-site reactions, measuring vital signs and ECGs, and performing clinical laboratory blood and urine analyses.
• Cohort 1: One dose containing 0.5 mg of CT-388 or matched placebo administered subcutaneously in the abdomen • Cohort 2: One dose containing 2.0 mg of CT-388 or matched placebo administered subcutaneously in the abdomen • Cohort 3: One dose containing 5.0 mg of CT-388 or matched placebo administered subcutaneously in the abdomen • Cohort 4: One dose containing 7.5 mg of CT-388 or matched placebo administered subcutaneously in the abdomen • Cohort 5: One dose containing 6.0 mg of CT-388 or matched placebo administered subcutaneously in the abdomen
A Phase 1, randomized, placebo-controlled, double-blind study was conducted where single ascending doses (SAD; n=40; 0.5-7.5 mg) and multiple ascending doses (MAD; n=24; 5-12 mg via titration in 3 cohorts) were administered as described in Example 1 to overweight/obese adults.

[1] = Cohort 1, 0.5 mg/Placebo single SC dose
[2] = Cohort 2, 2 mg/Placebo single SC dose
[3] = Cohort 3, 5 mg/Placebo single SC dose
[4] = Cohort 4, 7.5 mg/Placebo single SC dose
[5] = Cohort 5, 6 mg/Placebo single SC dose

For `CC[C@H](C)[C@H](NC(=O)[C@H](CC(C)C)NC(=O)[C@H](Cc1c[nH]c2ccccc12)NC(=O)[C@H](CCC(N)=O)NC(=O)[C@@H](NC(=O)[C@H](Cc1ccccc1)NC(=O)[C@H](C)NC(=O)[C@H](CCCCNC(=O)COCCOCCNC(=O)COCCOCCNC(=O)CC[C@H](NC(=O)CCCCCCCCCCCCCCCCCCC(=O)O)C(=O)O)NC(=O)[C@H](CCC(N)=O)NC(=O)[C@H](C)NC(=O)[C@@H](NC(=O)[C@H](CCCCN)NC(=O)[C@H](CC(=O)O)NC(=O)[C@H](CC(C)C)NC(=O)C(C)(C)NC(=O)[C@@H](NC(=O)[C@H](CO)NC(=O)[C@H](Cc1ccc(O)cc1)NC(=O)[C@H](CC(=O)O)NC(=O)[C@H](CO)NC(=O)[C@@H](NC(=O)[C@H](Cc1ccccc1)NC(=O)[C@@H](NC(=O)CNC(=O)[C@H](CCC(=O)O)NC(=O)CCNC(=O)C(C)(C)c1cc(F)cc(C#N)c1)[C@@H](C)O)[C@@H](C)O)[C@@H](C)CC)[C@@H](C)CC)C(C)C)C(=O)N[C@@H](C)C(=O)NCC(=O)NCC(=O)N1CCC[C@H]1C(=O)N[C@@H](CO)C(=O)N[C@@H](CO)C(=O)NCC(=O)N[C@@H](C)C(=O)N1CCC[C@H]1C(=O)N1CCC[C@H]1C(=O)N1CCC[C@H]1C(=O)N[C@@H](CO)C(N)=O` [CT-388] ({Isobutyryl(2-(3-CN-5-F-Ph))-βAla}-EGTFTSDYSI[Aib]LDKIAQK([AEEA-AEEA-γGlu-C20 diacid])AFVQWLIAGGPSSGAPPPS-NH2), the “AE: Abdominal bloating” value [1] was 0, the “AE: Abdominal cramp” value [1] was 0 and the “AE: Abdominal cramp with loose bowel” value [1] was 0. The “AE: Abdominal pain” value [1] was 0, the “AE: Abnormal LFTs” value [1] was 0 and the “AE: Constipation” value [1] was 0. For the same compound, the “AE: Diarrhea” value [1] was 0, the “AE: Dyspepsia” value [1] was 0 and the “AE: Dysphasia” value [1] was 0. For the same compound, the “AE: Early satiety” value [1] was 0, the “AE: Emesis” value [1] was 0 and the “AE: Exacerbated GERD” value [1] was 0. The “AE: Fatigue” value [1] was 0, the “AE: Headache” value [1] was 0 and the “AE: Indigestion” value [1] was 0. The “AE: Lethargy” value [1] was 0, the “AE: Loose bowel motion” value [1] was 0 and the “AE: Loose stools” value [1] was 0. For the same compound, the “AE: Loss of Appetite” value [1] was 0, the “AE: Microscopic hematuria” value [1] was 0 and the “AE: Nausea” value [1] was 0. The “AE: Reduced appetite” value [1] was 0, the “AE: Reduced bowel motion” value [1] was 0 and the “AE: Reflux” value [1] was 0. For the same compound, the “AE: Throat discomfort” value [1] was 0, the “AE: Vomiting” value [1] was 0 and the “Life-threatening TEAE” value [1] was 0. The “Moderate TEAEs” value [1] was 0, the “Related TEAEs” value [1] was 0 and the “Serious TEAEs” value [1] was 0. For the same compound, the “Severe TEAEs” value [1] was 0, the “TEAE leading to death” value [1] was 0 and the TEAEs [1] was 8. For the same compound, the “AE: Abdominal bloating” value [2] was 0, the “AE: Abdominal cramp” value [2] was 0 and the “AE: Abdominal cramp with loose bowel” value [2] was 2 (25.0%). The “AE: Abdominal pain” value [2] was 0, the “AE: Abnormal LFTs” value [2] was 0 and the “AE: Constipation” value [2] was 2 (25.0%). The “AE: Diarrhea” value [2] was 0, the “AE: Dyspepsia” value [2] was 0 and the “AE: Dysphasia” value [2] was 0. For the same compound, the “AE: Early satiety” value [2] was 1 (12.5%), the “AE: Emesis” value [2] was 0 and the “AE: Exacerbated GERD” value [2] was 0. For the same compound, the “AE: Fatigue” value [2] was 2 (25.0%), the “AE: Headache” value [2] was 1 (12.5%) and the “AE: Indigestion” value [2] was 0. The “AE: Lethargy” value [2] was 1 (12.5%), the “AE: Loose bowel motion” value [2] was 0 and the “AE: Loose stools” value [2] was 0. The “AE: Loss of Appetite” value [2] was 2 (25.0%), the “AE: Microscopic hematuria” value [2] was 0 and the “AE: Nausea” value [2] was 0. For the same compound, the “AE: Reduced appetite” value [2] was 0, the “AE: Reduced bowel motion” value [2] was 0 and the “AE: Reflux” value [2] was 0. The “AE: Throat discomfort” value [2] was 0, the “AE: Vomiting” value [2] was 0 and the “Life-threatening TEAE” value [2] was 0. The “Moderate TEAEs” value [2] was 1, the “Related TEAEs” value [2] was 6 and the “Serious TEAEs” value [2] was 0. For the same compound, the “Severe TEAEs” value [2] was 0, the “TEAE leading to death” value [2] was 0 and the TEAEs [2] was 8. For the same compound, the “AE: Abdominal bloating” value [3] was 0, the “AE: Abdominal cramp” value [3] was 0 and the “AE: Abdominal cramp with loose bowel” value [3] was 0. For the same compound, the “AE: Abdominal pain” value [3] was 0, the “AE: Abnormal LFTs” value [3] was 0 and the “AE: Constipation” value [3] was 0. For the same compound, the “AE: Diarrhea” value [3] was 0, the “AE: Dyspepsia” value [3] was 1 (12.5%) and the “AE: Dysphasia” value [3] was 1 (12.5%). For the same compound, the “AE: Early satiety” value [3] was 0, the “AE: Emesis” value [3] was 2 (25.0%) and the “AE: Exacerbated GERD” value [3] was 0. The “AE: Fatigue” value [3] was 0, the “AE: Headache” value [3] was 0 and the “AE: Indigestion” value [3] was 1 (12.5%). For the same compound, the “AE: Lethargy” value [3] was 0, the “AE: Loose bowel motion” value [3] was 0 and the “AE: Loose stools” value [3] was 0. The “AE: Loss of Appetite” value [3] was 1 (12.5%), the “AE: Microscopic hematuria” value [3] was 1 (12.5%) and the “AE: Nausea” value [3] was 0. The “AE: Reduced appetite” value [3] was 0, the “AE: Reduced bowel motion” value [3] was 0 and the “AE: Reflux” value [3] was 0. For the same compound, the “AE: Throat discomfort” value [3] was 0, the “AE: Vomiting” value [3] was 0 and the “Life-threatening TEAE” value [3] was 0. For the same compound, the “Moderate TEAEs” value [3] was 0, the “Related TEAEs” value [3] was 4 and the “Serious TEAEs” value [3] was 0. The “Severe TEAEs” value [3] was 0, the “TEAE leading to death” value [3] was 0 and the TEAEs [3] was 6. The “AE: Abdominal bloating” value [4] was 1 (12.5%), the “AE: Abdominal cramp” value [4] was 1 (12.5%) and the “AE: Abdominal cramp with loose bowel” value [4] was 0. The “AE: Abdominal pain” value [4] was 0, the “AE: Abnormal LFTs” value [4] was 1 (12.5%) and the “AE: Constipation” value [4] was 0. The “AE: Diarrhea” value [4] was 2 (25.0%), the “AE: Dyspepsia” value [4] was 0 and the “AE: Dysphasia” value [4] was 0. For the same compound, the “AE: Early satiety” value [4] was 0, the “AE: Emesis” value [4] was 0 and the “AE: Exacerbated GERD” value [4] was 1 (12.5%). The “AE: Fatigue” value [4] was 0, the “AE: Headache” value [4] was 2 (25.0%) and the “AE: Indigestion” value [4] was 0. The “AE: Lethargy” value [4] was 0, the “AE: Loose bowel motion” value [4] was 0 and the “AE: Loose stools” value [4] was 1 (12.5%). The “AE: Loss of Appetite” value [4] was 1 (12.5%), the “AE: Microscopic hematuria” value [4] was 0 and the “AE: Nausea” value [4] was 6 (75.0%). For the same compound, the “AE: Reduced appetite” value [4] was 2 (25.0%), the “AE: Reduced bowel motion” value [4] was 1 (12.5%) and the “AE: Reflux” value [4] was 2 (25.0%). For the same compound, the “AE: Throat discomfort” value [4] was 1 (12.5%), the “AE: Vomiting” value [4] was 3 (37.5%) and the “Life-threatening TEAE” value [4] was 0. For the same compound, the “Moderate TEAEs” value [4] was 5, the “Related TEAEs” value [4] was 7 and the “Serious TEAEs” value [4] was 1. For the same compound, the “Severe TEAEs” value [4] was 1, the “TEAE leading to death” value [4] was 0 and the TEAEs [4] was 8. For the same compound, the “AE: Abdominal bloating” value [5] was 0, the “AE: Abdominal cramp” value [5] was 0 and the “AE: Abdominal cramp with loose bowel” value [5] was 0. The “AE: Abdominal pain” value [5] was 1 (12.5%), the “AE: Abnormal LFTs” value [5] was 0 and the “AE: Constipation” value [5] was 1 (12.5%). The “AE: Diarrhea” value [5] was 0, the “AE: Dyspepsia” value [5] was 0 and the “AE: Dysphasia” value [5] was 0. The “AE: Early satiety” value [5] was 0, the “AE: Emesis” value [5] was 0 and the “AE: Exacerbated GERD” value [5] was 0. The “AE: Fatigue” value [5] was 0, the “AE: Headache” value [5] was 1 (12.5%) and the “AE: Indigestion” value [5] was 0. For the same compound, the “AE: Lethargy” value [5] was 0, the “AE: Loose bowel motion” value [5] was 1 (12.5%) and the “AE: Loose stools” value [5] was 0. For the same compound, the “AE: Loss of Appetite” value [5] was 1 (12.5%), the “AE: Microscopic hematuria” value [5] was 0 and the “AE: Nausea” value [5] was 2 (25.0%). The “AE: Reduced appetite” value [5] was 1 (12.5%), the “AE: Reduced bowel motion” value [5] was 0 and the “AE: Reflux” value [5] was 0. The “AE: Throat discomfort” value [5] was 0, the “AE: Vomiting” value [5] was 2 (25.0%) and the “Life-threatening TEAE” value [5] was 0. For the same compound, the “Moderate TEAEs” value [5] was 2, the “Related TEAEs” value [5] was 4 and the “Serious TEAEs” value [5] was 1. For the same compound, the “Severe TEAEs” value [5] was 1, the “TEAE leading to death” value [5] was 0 and the TEAEs [5] was 6. The safety and tolerability (SAD Cohorts 1-5, single SC dose 0.5-7.5 mg, preliminary and blinded data) was “generally well-tolerated”.
